The values below come from US20160375019A1, “TREATMENT OF CHRONIC GRAFT VERSUS HOST DISEASE WITH SYK INHIBITORS” (Gilead Sciences, Inc., priority 2015, published 2016).

Data set [1] relates to basophils (CD63 expression) in human whole blood. Briefly: 384-well HTBS Whole Blood CD63 Basophil Assay. The data set is classed as cell-based. The following applies: human whole blood (25% blood); comparison table. Here is the method: Syk activity was assessed in relation to reduced activation of basophils as measured by the expression of CD63 in a human whole blood basophil cellular assay (25% blood). Basophil activation was measured in human whole blood using the Flow CAST kit (Buhlmann Laboratories AG, Baselstrasse, Switzerland) following the protocol provided by the manufacturer with minor modifications. Fresh human whole blood in heparin was collected and delivered same day (AllCells, Emeryville, Calif.). Whole blood samples were incubated with either DMSO (1% final) or serial diluted compounds in DMSO for 60 minutes at 37° C. Basophils were activated using the anti-FceRI mAb and stained with anti-CD63-FITC and anti-CCR3-PE for 20 minutes at 37° C. (per well: 50 μL of whole blood was mixed with 113 μL of stimulation buffer, 8.5 μL anti-FceRI mAb, 8.5 μL Ab stain CCR3-PE/CD63-FITC). Cells were centrifuged at 1000×g for 18 minutes and 150 μL/well of supernatant removed. Red blood cells were lysed and cells fixed by 2 rounds of cell lysing: resuspending cell pellets with 150 μL/well 1× lysis buffer, incubating at room temperature for 10 minutes, and collecting cell pellets by centrifuging for 1200 rpms for 5 minutes. Cells were washed with 150 μL/well wash buffer twice, and resuspended in a final volume of 75 μL/well of wash buffer for either immediate flow cytometery analysis or overnight incubation at 4° C. followed by flow cytometry analysis. Degranulation (basophil activation) was detected by CD63 surface expression on CCR3 positive cells. The percent CD63 positive cells within the gated basophil population were determined and normalized to the DMSO (negative control) and control compound (positive control).

Data set [2] concerns hepatocytes. The data set is classed as in vitro ADME. Particulars: human. The method, then: The human […] stability of the compounds as predicted hepatocyte clearance in L/hr/kg was assessed. Compounds to be tested were diluted to 200 μM (4 μl of 10 mM DMSO stock into 196 μl ACN:H2O (50:50). Propranolol was used as a positive control, and buffer only without hepatocytes as 0% control. These were further diluted 4 μl with 891 μl KHB buffer (InVitroGRO catalog number Z99074) to provide 2× dosing solution. To each well of 24 well plate, 250 μl of the 2× dosing solution was added to each well with 250 μl of hepatocytes cells (1×10^6 viable cells/ml per well) or KHB for control samples to achieve a final compound concentration of 1 μM during incubation. The final solvent concentration was 0.01% DMSO and 0.25% ACN. The culture plate was placed on a rocker and incubated at 37° C., 5% CO2. Samples were collected at time 0, 1, 3, and 6 hours. The loss of parent compound was determined using LC-MS methods against a standard curve.

For data set [3], the system named is B cells (CD19+) in PBMCs from cGVHD and inactive cGVHD subjects. Briefly: Apoptosis Assay: B cells in PBMCs from subjects with active or inactive cGVHD, flow cytometry. Particulars: 48 hours. It counts as cell-based, human. The method, then: Entospletinib (Formula I) was prepared as a 10 mM stock in dimethyl sulfoxide (DMSO). Before use, entospletinib was thawed from 10 mM DMSO stocks frozen in 0.75 mL polypropylene tubes at −20° C.
For untreated PBMCs, DMSO alone (the diluent used to generate entospletinib stock solution) was used in the cultures at the equivalent volume as for the 1.0 μM entospletinib treatment group. The cells were then incubated for 48 hr at 37° C. and 5% CO2, harvested, and assessed for the frequency of apoptotic B cells by flow cytometry analysis as described below.
Flow Cytometry Analysis—Cultured PBMCs were washed in FACS wash buffer (PBS containing 2% FBS) and then resuspended in FACS wash containing Fc block (Human TruStain FcXTM Fc Receptor Blocking Solution from BioLegend, San Diego, Calif.) at the recommended concentration. Following a 15 minute incubation on ice, the cells were stained with Pacific Blue™ conjugated anti-human CD19 antibody (BioLegend, Inc.) for an additional 30 min and then washed in cold PBS, followed by a second wash with Annexin V Binding Buffer (Annexin V Apoptosis Detection Kit-APC, eBioscience, Inc.) according to the manufacturer's instructions. The cells were then resuspended in Annexin V Binding Buffer containing APC-conjugated Annexin V, and incubated in the dark for 15 min at RT. Finally, the cells were washed with cold Annexin V Binding Buffer, resuspended in cold Annexin V Binding Buffer containing 7-AAD (BD Biosciences), kept on ice, and analyzed immediately on a FACSCantoTM flow cytometer. Flow cytometry data files were analyzed using FlowJo software (version X) to identify B cells and determine the frequencies of apoptotic cells based on Annexin V and 7-AAD staining.
For each set of patient samples, B cell apoptosis induced by entospletinib at each concentration was determined by the following ratio: % Annexin V^+/7-AAD^− B cells (entospletinib-treated)/% Annexin V^+/7-AAD^− B cells (untreated). […] Graphic display and curve fit analysis to determine the EC50 for entospletinib apoptosis-inducing activity in active cGVHD B cells was performed using GraphPad Prism software (GraphPad Software, La Jolla, Calif).
On the technique in general: A flow cytometer gives signals particle by particle.

Data set [4] is described as follows: Kinetic Solubility in phosphate buffer at pH 7.4. The data set is classed as physicochemical. The following applies: 37 °C, aqueous buffer, kinetic from dmso stock; phosphate buffer pH 7.4. The method, then: The kinetic solubility of compounds in phosphate buffer at pH 7.4 was assessed. The compounds to be tested were dissolved in dimethylsulfoxide at a 10 mM concentration. Stock samples were diluted, 3 μl with 297 μl of the phosphate buffer at pH 7.4 (DulBecco's phosphate buffered saline (Sigma-Aldrich D8662), overall molarity is 0.149 M and pH 7.43). The samples were then incubated for 24 hours at 37° C. with shaking, the centrifuged and an aliquot taken and tested relative to a known standard concentration of 0.1 mM.

As to `COc1ccc(Nc2nc(-c3cccc(N)c3)cn3ccnc23)cc1OC` [6-(3-aminophenyl)-N-(3,4-dimethoxyphenyl)imidazo[1,2-a]pyrazin-8-amine, reference compound], in data set [1], half-maximal inhibition (IC50) was put at 809 nM. The compound further showed a Hheps CL in data set [2] of 4 mL/min/kg.
In the same order, the values of `Cc1ncc(-c2cn3ccnc3c(Nc3ccc(N4CCOCC4)cc3)n2)cc1N` [6-(5-amino-6-methylpyridin-3-yl)-N-(4-morpholinophenyl)imidazo[1,2-a]pyrazin-8-amine, reference compound] are 250 nM and 13.3 mL/min/kg.
In data set [2], `Nc1cncc(-c2cn3ccnc3c(Nc3ccc(N4CCOCC4)cc3)n2)c1` [6-(5-aminopyridin-3-yl)-N-(4-morpholinophenyl)imidazo[1,2-a]pyrazin-8-amine, reference compound] had a Hheps CL of 11.3 mL/min/kg.
On the same count and under the same terms, then `COc1ccc(Nc2nc(-c3ccc(N)nc3)cn3ccnc23)cc1OC` [6-(6-aminopyridin-3-yl)-N-(3,4-dimethoxyphenyl)imidazo[1,2-a]pyrazin-8-amine, reference compound], with 15 mL/min/kg.
Take `c1cn2cc(-c3ccc4cn[nH]c4c3)nc(Nc3ccc(N4CCOCC4)cc3)c2n1` [Entospletinib, 6-(1H-indazol-6-yl)-N-(4-morpholinophenyl)imidazo[1,2-a]pyrazin-8-amine]: the “B cell apoptosis, one subject with cGVHD with low level of baseline apoptosis” value in data set [3] (1.0-0.0078 μM) is “dose-dependent increase in B cell apoptosis”. Further, the “B cell apoptosis, other two cGVHD subjects with higher baseline level of apoptosis” value in data set [3] (1.0-0.0078 μM) is listed as “caused an increase in B cell apoptosis”. Moreover, the “apoptosis of B cells obtained from subjects with cGVHD” value in data set [3] (1.0-0.0078 μM) is reported as “caused apoptosis of B cells”. Besides, the “B cell apoptosis in cGVHD samples versus subjects without cGVHD” value in data set [3] (>125 nM ENTO, mean of 3 donors) is reported as “statistically significant dose-dependent increase in B cell apoptosis”. Besides, the “Annexin V+/7AAD− (frequency of parent)” value was 47.7 in data set [3] (Inactive #1, 7.8 nM); 45.7 in data set [3] (Inactive #1, 15.6 nM); 46.6 in data set [3] (Inactive #1, 31.3 nM); 47.5 in data set [3] (Inactive #1, 62.5 nM); 53.4 in data set [3] (Inactive #1, 125 nM); 51.3 in data set [3] (Inactive #1, 250 nM). Also, the “Annexin V+/7AAD− (frequency of parent)” value amounted to 48.7 in data set [3] (Inactive #1, 500 nM); 44.4 in data set [3] (Inactive #1, 1000 nM); 41.5 in data set [3] (Inactive #2, 7.8 nM); 39.8 in data set [3] (Inactive #2, 15.6 nM); 43.9 in data set [3] (Inactive #2, 31.3 nM); 42.2 in data set [3] (Inactive #2, 62.5 nM). In addition, the “Annexin V+/7AAD− (frequency of parent)” value in data set [3] (Inactive #2, 125 nM) is 43.2; in data set [3] (Inactive #2, 250 nM), 44.9; in data set [3] (Inactive #2, 500 nM), 50.2; in data set [3] (Inactive #2, 1000 nM), 50.4; in data set [3] (Inactive #3, 7.8 nM) it was 50.4; in data set [3] (Inactive #3, 15.6 nM), 51.2. Moreover, the “Annexin V+/7AAD− (frequency of parent)” value in data set [3] (Inactive #3, 31.3 nM) is 51.7; in data set [3] (Inactive #3, 62.5 nM), 52.1; in data set [3] (Inactive #3, 125 nM), 52.4; in data set [3] (Inactive #3, 250 nM), 56.2; in data set [3] (Inactive #3, 500 nM) it was 57.1; in data set [3] (Inactive #3, 1000 nM) it was 55.6. The “Annexin V+/7AAD− (frequency of parent)” value came out at 40.1 in data set [3] (cGVHD #1, 7.8 nM); 40.4 in data set [3] (cGVHD #1, 15.6 nM); 42.0 in data set [3] (cGVHD #1, 31.3 nM); 48.2 in data set [3] (cGVHD #1, 62.5 nM); 48.2 in data set [3] (cGVHD #1, 125 nM); 50.7 in data set [3] (cGVHD #1, 250 nM). Moreover, the “Annexin V+/7AAD− (frequency of parent)” value is given as 53.6 in data set [3] (cGVHD #1, 500 nM); 55.0 in data set [3] (cGVHD #1, 1000 nM); 41.0 in data set [3] (cGVHD #2, 7.8 nM); 40.7 in data set [3] (cGVHD #2, 15.6 nM); 39.6 in data set [3] (cGVHD #2, 31.3 nM); 41.5 in data set [3] (cGVHD #2, 62.5 nM). In addition, the “Annexin V+/7AAD− (frequency of parent)” value in data set [3] (cGVHD #2, 125 nM) came to 43.9; in data set [3] (cGVHD #2, 250 nM), 48.6; in data set [3] (cGVHD #2, 500 nM), 48.3; in data set [3] (cGVHD #2, 1000 nM), 53.5; in data set [3] (cGVHD #3, 7.8 nM) it was 19.6; in data set [3] (cGVHD #3, 15.6 nM) it was 20.0. Further, the “Annexin V+/7AAD− (frequency of parent)” value came to 20.8 in data set [3] (cGVHD #3, 31.3 nM); 21.6 in data set [3] (cGVHD #3, 62.5 nM); 26.4 in data set [3] (cGVHD #3, 125 nM); 29.5 in data set [3] (cGVHD #3, 250 nM); 32.7 in data set [3] (cGVHD #3, 500 nM); 42.2 in data set [3] (cGVHD #3, 1000 nM).
Turning to `Cc1ncc(-c2cn3ccnc3c(Nc3ccc(N4CCN(C5COC5)CC4)cc3)n2)nc1N` [Ex.-1, 6-(6-amino-5-methylpyrazin-2-yl)-N-(4-(4-(oxetan-3-yl)piperazin-1-yl)phenyl)imidazo[1,2-a]pyrazin-8-amine], the kinetic solubility (in general, the concentration staying in solution when a stock, usually in DMSO, is diluted into the medium) at 24 h in data set [4] was above 90 µM. Also, the Hheps CL in data set [2] worked out at 2 mL/min/kg.
